Each compound was assayed against T1, Nucleotide-binding oligomerization domain-containing protein 1 (Homo sapiens, UniProt Q9Y239) (assay: Inhibition of NOD1 (unknown origin) expressed in HEK293T cells coexpressing NF-kappaB driven luciferase reporter gene by HTS primary assay).
T1 sequence (Q9Y239 whole entry): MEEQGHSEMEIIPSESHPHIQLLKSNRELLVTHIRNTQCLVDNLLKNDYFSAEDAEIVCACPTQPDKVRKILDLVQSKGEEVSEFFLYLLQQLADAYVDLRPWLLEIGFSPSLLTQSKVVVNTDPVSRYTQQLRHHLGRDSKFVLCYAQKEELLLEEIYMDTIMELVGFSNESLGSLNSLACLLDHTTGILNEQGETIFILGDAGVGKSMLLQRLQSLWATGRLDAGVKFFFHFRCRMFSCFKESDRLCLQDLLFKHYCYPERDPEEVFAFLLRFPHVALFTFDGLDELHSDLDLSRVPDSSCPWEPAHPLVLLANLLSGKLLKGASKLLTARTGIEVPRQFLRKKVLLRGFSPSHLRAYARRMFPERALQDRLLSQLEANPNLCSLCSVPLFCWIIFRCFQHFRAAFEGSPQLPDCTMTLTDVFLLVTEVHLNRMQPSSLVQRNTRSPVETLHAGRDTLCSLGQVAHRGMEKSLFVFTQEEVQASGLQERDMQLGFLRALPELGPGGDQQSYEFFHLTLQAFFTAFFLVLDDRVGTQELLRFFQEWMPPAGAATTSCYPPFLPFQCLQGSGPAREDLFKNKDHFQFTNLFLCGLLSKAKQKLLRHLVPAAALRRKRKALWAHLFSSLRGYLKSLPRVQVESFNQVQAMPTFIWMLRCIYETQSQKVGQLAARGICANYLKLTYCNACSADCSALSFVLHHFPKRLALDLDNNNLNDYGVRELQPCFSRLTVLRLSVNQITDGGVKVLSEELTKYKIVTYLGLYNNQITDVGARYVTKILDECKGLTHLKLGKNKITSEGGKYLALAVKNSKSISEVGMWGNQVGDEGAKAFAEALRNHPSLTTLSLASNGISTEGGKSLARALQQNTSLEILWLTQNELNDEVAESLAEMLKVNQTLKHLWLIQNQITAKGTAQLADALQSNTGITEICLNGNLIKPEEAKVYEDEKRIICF
Format: cell-based, HEK-293T

SMILES	IC50 [nM]
CC(C)c1cccc(NC(=O)Cn2c(CCNC(=O)c3ccccc3)nc3ccccc32)c1	800
O=C(Cn1c(CCNC(=O)c2ccc3ccccc3c2)nc2ccccc21)Nc1ccc2c(c1)CCC2	3400
CN(CCc1nc2ccccc2n1CC(=O)Nc1ccc2c(c1)CCC2)C(=O)c1ccc2ccccc2c1	200

The next lines start with the values.

IC50 [nM]	SMILES
3300	O=C(Cn1c(CCNC(=O)c2ccccc2)nc2ccccc21)Nc1ccc2c(c1)CCC2
1600	O=C(Cn1c(CCNC(=O)c2ccccc2)nc2ccccc21)Nc1ccc2ccccc2c1
1300	O=C(Cn1c(CCNC(=O)c2ccccc2)nc2cc(Cl)ccc21)Nc1ccc2c(c1)CCC2
400	CN(CCc1nc2ccccc2n1CC(=O)Nc1ccc2c(c1)CCC2)C(=O)c1ccccc1

The compounds below were run against Nucleotide-binding oligomerization domain-containing protein 2 (Homo sapiens, UniProt Q9HC29) (assay: Inhibition of NOD2 (unknown origin) expressed in HEK293T cells coexpressing NF-kappaB driven luciferase reporter gene by HTS primary assay).
Format: cell-based, HEK-293T

Chain of Nucleotide-binding oligomerization domain-containing protein 2 (Q9HC29 whole entry, the tested form may be a part): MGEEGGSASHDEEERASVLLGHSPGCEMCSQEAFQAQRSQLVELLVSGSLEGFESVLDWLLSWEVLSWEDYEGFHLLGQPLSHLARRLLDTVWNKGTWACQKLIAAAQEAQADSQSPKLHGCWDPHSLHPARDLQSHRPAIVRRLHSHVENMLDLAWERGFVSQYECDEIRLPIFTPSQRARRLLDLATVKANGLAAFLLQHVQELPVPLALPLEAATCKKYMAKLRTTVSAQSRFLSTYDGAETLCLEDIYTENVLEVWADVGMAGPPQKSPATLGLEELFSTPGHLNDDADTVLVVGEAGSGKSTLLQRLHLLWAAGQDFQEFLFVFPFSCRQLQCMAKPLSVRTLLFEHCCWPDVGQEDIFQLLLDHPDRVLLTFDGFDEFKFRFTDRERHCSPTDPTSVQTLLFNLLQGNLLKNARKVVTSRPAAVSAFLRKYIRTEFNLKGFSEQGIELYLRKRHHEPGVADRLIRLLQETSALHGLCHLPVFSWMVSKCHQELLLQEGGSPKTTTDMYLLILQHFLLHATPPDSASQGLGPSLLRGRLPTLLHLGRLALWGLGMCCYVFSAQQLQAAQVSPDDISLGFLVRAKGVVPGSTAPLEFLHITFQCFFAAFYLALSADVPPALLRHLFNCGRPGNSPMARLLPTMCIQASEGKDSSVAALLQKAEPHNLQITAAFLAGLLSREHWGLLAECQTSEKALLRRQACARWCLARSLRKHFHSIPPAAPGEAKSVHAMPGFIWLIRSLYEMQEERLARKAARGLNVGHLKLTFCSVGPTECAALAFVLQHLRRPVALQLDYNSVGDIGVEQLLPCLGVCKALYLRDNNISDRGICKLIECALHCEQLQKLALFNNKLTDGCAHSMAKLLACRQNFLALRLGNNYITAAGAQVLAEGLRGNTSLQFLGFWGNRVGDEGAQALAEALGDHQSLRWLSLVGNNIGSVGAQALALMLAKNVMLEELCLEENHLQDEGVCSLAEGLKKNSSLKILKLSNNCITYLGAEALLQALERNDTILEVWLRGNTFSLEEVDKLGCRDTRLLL

IC50 [nM]	SMILES
12700	C/C=C/Cn1c(SCCCc2ccccc2)nc2c1c(=O)[nH]c(=O)n2C
> 20000	CCCCCn1c(SCCc2ccccc2)nc2c1c(=O)[nH]c(=O)n2C

SMILES	IC50 [nM]
Cc1ccc(S(=O)(=O)n2c(N)nc3ccccc32)cc1	> 20000

Source: ChEMBL document CHEMBL3352342, “Nucleotide-binding oligomerization domain (NOD) inhibitors: a rational approach toward inhibition of NOD signaling pathway” (J Med Chem, 2014)
